# From patent US20230134958A1, “NEW MEDICAL TREATMENT” (Umecrine Cognition AB, priority 2021, published 2023)
# Tested on: cirrhotic patients defined as Child-Pugh class A and B with manifestation of CHE
# Assay: Continuous Reaction Time (CRT) test, clinical Phase II study part D (EudraCT 2016-003651-30), 21 days extended treatment
# Assay type: in vivo, human
# Method: Protocol EudraCT 2016-003651-30 was a randomized, double-blinded, placebo-controlled study consisting of four parts, where part D (partly) of the study is relevant to the herein disclosed and claimed invention. The aim of the study was to assess the potential efficacy (Part D) of the compound golexanolone in patients with cirrhosis. The study was performed at sites in Sweden, Denmark, Ukraine, Russia, Hungary and Poland.
# Extended treatment (21 consecutive days) in cirrhotic patients defined as Child-Pugh class A and B with manifestation of CHE, was performed.
# An objective of study part D (phase IIa, extended treatment) was to assess preliminary efficacy of treatment with the compound golexanolone on cognitive function, as measured by the Continuous Reaction time (CRT) test.
# In order to be eligible for the study, patients required evidence of cognitive impairment defined as a CRT index <1.9 at screening. CRT was re-assessed at baseline, prior to dosing but was not required to be abnormal at baseline.
# Exclusion criteria included uncontrolled infection, active gastrointestinal bleeding, a history of bleeding requiring transfusion, transjugular intrahepatic portosystemic shunt placement within the past 90 days, hepatorenal syndrome, uncontrolled ascites, current malignancy, evidence of overt HE at screening or within 7 days of screening, use of psychoactive drugs, or any other psychiatric or medical comorbidity judged by the Investigator to preclude safe participation and/or confound the interpretation of study results.
# Alcohol consumption was not allowed within two days prior to screening or for 24 hours prior to all study visits. Moreover, subjects were required to have a negative alcohol breath test at screening and subsequent study visits, including Part D study days 10 and 21 at which cognitive function was measured.
# The Investigational Medicinal Product (IMP) is self-administered by the patient at home, except for the study days of visiting the clinic (Days 1, 10 and 21), when the IMP is administered under surveillance. Assistance of a dedicated care-giver or family members/friends is mandatory during the extended treatment period. Intake of study medication, changes in concomitant medications and medical events between visits are registered in a diary on a daily basis by the patient/care-giver and a care-giver diary is completed. Efficacy parameters are evaluated. If assessed as required for practical reasons, a patient can be confined to the research clinic from the evening before dosing on Day 21. A follow-up visit is performed 5-10 days after (last) IMP administration. Change in CRT index from baseline (day 1) to 10 and 21 days respectively after start of treatment, as
# compared to placebo, is evaluated.
# The Investigational Medical Product (clinical formulation) is supplied as a lipid semi-solid filled in a gelatine capsule for oral administration. For the present study, each capsule contains 10 mg golexanolone. The excipient is a mixture of mono -and diglycerides of capric/caprylic glycerides (Imwitor® 742), which is of pharmacopoeia quality.
# The Investigational Medical Product golexanolone is administered every twelve (12) hours (i. e. twice daily) for 21 consecutive days.
# 10 mg golexanolone BID (i.e. 20 mg per day) in combination with Standard of Care therapy; or 40 mg golexanolone BID (i.e. 80 mg per day) in combination with Standard of Care therapy; or 80 mg golexanolone BID (i.e. 160 mg per day) in combination with Standard of Care therapy; or placebo BID in combination with Standard of Care therapy.
# Standard of Care therapy may be any one of an oral antioxidant, fluvoxamine, fluoxetine, ondansetron, colchicine, UDCA (ursodeoxycholic acid), OCA (obeticholic acid), ciclosporin, nalmefene, modafinil, rituximab, lactulose, rifaximin, propranolol, furosemide, methotrexate; or any combination thereof.
compound,measurement,setting,value
"C#C[C@]1(O)CC[C@@]2(C)C(CC[C@@H]3[C@@H]2CC[C@]2(C)/C(=N/O)CC[C@@H]32)C1 (stereo partly drawn) [Golexanolone, 3α-ethynyl-3β-hydroxyandrostan-17-one oxime]",Change in CRT compared to baseline,"36 patients with abnormal CRT (<1.9) at baseline, 10 mg BID oral with Standard of Care, Day 10, N = 8",0.3504
same,Change in CRT compared to baseline,"36 patients with abnormal CRT (<1.9) at baseline, 10 mg BID oral with Standard of Care, Day 21, N = 8",0.4166
same,Change in CRT compared to baseline,"36 patients with abnormal CRT (<1.9) at baseline, 40 mg BID oral with Standard of Care, Day 10, N = 10",0.3035
same,Change in CRT compared to baseline,"36 patients with abnormal CRT (<1.9) at baseline, 40 mg BID oral with Standard of Care, Day 21, N = 10",0.4276
same,Change in CRT compared to baseline,"36 patients with abnormal CRT (<1.9) at baseline, 80 mg BID oral with Standard of Care, Day 10, N = 9",0.5109
same,Change in CRT compared to baseline,"36 patients with abnormal CRT (<1.9) at baseline, 80 mg BID oral with Standard of Care, Day 21, N = 9",0.5219
same,Change in CRT compared to baseline,"all 45 patients with abnormal (<1.9) or normal CRT at baseline, 10 mg BID oral with Standard of Care, Day 10, N = 10",0.2762
same,Change in CRT compared to baseline,"all 45 patients with abnormal (<1.9) or normal CRT at baseline, 10 mg BID oral with Standard of Care, Day 21, N = 10",0.2792
same,Change in CRT compared to baseline,"all 45 patients with abnormal (<1.9) or normal CRT at baseline, 40 mg BID oral with Standard of Care, Day 10, N = 10",0.3035
same,Change in CRT compared to baseline,"all 45 patients with abnormal (<1.9) or normal CRT at baseline, 40 mg BID oral with Standard of Care, Day 21, N = 10",0.4276
same,Change in CRT compared to baseline,"all 45 patients with abnormal (<1.9) or normal CRT at baseline, 80 mg BID oral with Standard of Care, Day 10, N = 13",0.4593
same,Change in CRT compared to baseline,"all 45 patients with abnormal (<1.9) or normal CRT at baseline, 80 mg BID oral with Standard of Care, Day 21, N = 13",0.3505
